In PubChem BioAssay (NCI):
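Grown in 96-well plates, cells were treated for 48 hours with each compound at five concentrations. Insufficient inhibition: endpoint recorded as highest concentration tested. Here, GI50 denotes the concentration required for 50% inhibition of growth. TGI: concentration producing complete growth inhibition.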

Experiments:
Assay in all cases: growth of human tumour cells (NCI), 48 h
[1] = test system: DU-145 prostate
[2] = test system: HCT-116 colon
[3] = test system: MALME-3M melanoma
[4] = test system: MCF7 breast
[5] = test system: OVCAR-4 ovarian
[6] = test system: SK-MEL-5 melanoma
[7] = test system: SNB-19 CNS
[8] = test system: SR leukemia
[9] = test system: UACC-257 melanoma
[10] = test system: UACC-62 melanoma

Compound | GI50 [1] [µM] | TGI [1] [µM] | GI50 [2] [µM] | TGI [2] [µM] | GI50 [3] [µM] | TGI [3] [µM] | GI50 [4] [µM] | TGI [4] [µM] | GI50 [5] [µM] | TGI [5] [µM] | GI50 [6] [µM] | TGI [6] [µM] | GI50 [7] [µM] | TGI [7] [µM] | GI50 [8] [µM] | TGI [8] [µM] | GI50 [9] [µM] | TGI [9] [µM] | GI50 [10] [µM] | TGI [10] [µM]
O=C(O)c1cc2cc(O)ccc2[nH]1 | > 100 | > 100 | > 100 | > 100 | > 100 | > 100 | > 100 | > 100 | > 100 | > 100 | > 100 | > 100 | > 100 | > 100 | > 100 | > 100 | > 100 | > 100 | > 100 | > 100
O=C(Nc1cc(C(F)(F)F)cc(C(F)(F)F)c1)Nc1ccc(OCc2nnc(-c3ccc(Cl)cc3)o2)c(F)c1 | 3.58 | 15.2 | 0.802 | 3.02 | 2.3 | 6.27 | 1.79 | 8.47 | 2.31 | 10 | 1.51 | 2.96 | 3.1 | 25.1 | 2.38 | 10 | 1.62 | 5.01 | 1.79 | 11.6
C=C1[C@@H](O)C[C@H]2C(C)(C)C[C@H](Cl)C[C@]2(C)[C@H]1C[C@H](O)[C@H]1CC(=O)NC1=O | 0.0166 | 0.165 | < 0.01 | 0.109 | < 0.01 | 0.0632 | < 0.01 | 0.106 | 0.0174 | 0.391 | < 0.0134 | 0.0363 | < 0.01 | 0.241 | 0.0142 |  | 0.0193 | 0.122 | 0.0194 | 0.15
Cc1ccc(S(=O)(=O)NNC(C[N+](=O)[O-])c2ccccc2)cc1 (centres undefined) |  | > 100 |  | > 100 |  | 71.3 |  | 21.6 |  | 32.1 |  | 36.7 |  | 30.4 |  | 5.56 |  | 37.5 |  | 85.3
CSC(=NC#N)S/C=C/C(=O)c1cccc2ccccc12 | 39.1 | > 100 | 40 | > 100 | 15.8 | 38.6 | 30.9 | > 100 | 47.9 | > 100 | 23.1 | 55.4 | 43 | > 100 | 4.71 | > 100 | 21.3 | 47.2 | 27.7 | > 100
C[C@@H]1CC[C@@H]2[C@@H]1[C@H](OC(=O)c1ccc3ccccc3c1)[C@]1(C3CCCCC3)C[C@@H](OC(=O)CO)[C@@]2(C)O1 | 12.2 | 25.9 | 6.46 | 19.6 | 16.5 | 32.3 | 3.44 | 16.5 | 10.8 | 24.8 | 14 | 27.4 | 14.6 | 28.8 | 3.4 | 14.4 | 12.9 | 26.3 | 14.3 | 28.5
CCOc1ccc(NC(=O)c2cc3ccccc3cc2O)cc1 | > 100 | > 100 | 71.2 | > 100 | 39.7 | > 100 | > 100 | > 100 | > 100 | > 100 | > 100 | > 100 | 41.2 | > 100 | 22.8 | > 100 | > 100 | > 100 | 57.4 | > 100
c1ccc2c(-c3cnn4cc(-c5ccc(N6CCNCC6)cc5)cnc34)ccnc2c1 | 0.739 | 2.06 | 0.313 | 1.19 | 1.34 | 2.92 | 0.429 | 1.7 | 1.5 | 3.43 | 1.26 | 2.52 | 1.25 | 2.56 | 0.153 | 0.562 | 1.75 | 3.29 | 1.41 | 2.78
O=C(O)c1nnsc1-c1csnn1 |  | > 100 |  | > 100 |  | > 100 |  | > 100 |  | > 100 |  | > 100 |  | > 100 |  | > 100 |  | > 100 |  | > 100
Oc1cc2c(cc1C(c1ccc3c(c1)OCO3)N1CCN(C(c3ccc4c(c3)OCO4)c3cc4c(cc3O)OCO4)CC1)OCO2 (centres undefined) |  | 41.3 |  | 29.1 |  | 38.9 |  | > 100 |  | 16.5 |  | 37.9 |  | 43.6 |  | 14.6 |  | 33.4 |  | 27.5
CC(C)C[C@H]1C(=O)N2CCC[C@H]2[C@]2(O)O[C@](NC(=O)[C@@H]3C=C4c5cccc6[nH]c(Br)c(c56)C[C@H]4N(C)C3)(C(C)C)C(=O)N12 |  | > 100 |  | > 100 |  | > 100 |  | > 100 |  | > 100 |  | > 100 |  | > 100 |  | > 100 |  | > 100 |  | > 100
